What was measured:
velvetleaf = test: Test B pre/postemergence velvetleaf; type: in vivo, Abutilon theophrasti; conditions: for Plant response rating, Velvetleaf: Rate 250 g/ha
Summary of the method: (§1)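 Test chemicals in a non-phytotoxic solvent mixture with surfactant were sprayed preemergence onto planted seeds and postemergence onto plants 2 to 18 cm tall (1- to 4-leaf stage). After twelve to sixteen days in a greenhouse, injury was visually rated against untreated controls from 0 (no effect) to 10 (complete control).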

corn = test: Test B pre/postemergence corn; type: in vivo, Zea mays
Summary of the method: as §1

soybean = test: Test B pre/postemergence soybean; type: in vivo, Glycine max
Summary of the method: as §1

bedstraw = test: Test B pre/postemergence bedstraw; type: in vivo, Galium aparine
Summary of the method: as §1

wheat = test: Test B pre/postemergence wheat; type: in vivo, Triticum aestivum; conditions: for Plant response rating, Wheat: Rate 250 g/ha
Summary of the method: as §1

smallflower flatsedge = test: Test B flood test smallflower flatsedge; type: in vivo, Cyperus difformis
Summary of the method: (§2)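 Flood test on plants grown to the 2-leaf stage; treated plants kept in greenhouse twelve to sixteen days, then visually rated against controls on a 0 (no effect) to 10 (complete control) scale.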

cocklebur = test: Test B pre/postemergence cocklebur; type: in vivo, Xanthium strumarium
Summary of the method: as §1

pigweed = test: Test B pre/postemergence pigweed; type: in vivo, Amaranthus retroflexus
Summary of the method: as §1

giant foxtail = test: Test B pre/postemergence giant foxtail; type: in vivo, Setaria faberii
Summary of the method: as §1

rice = test: Test B flood test rice; type: in vivo, Oryza sativa
Summary of the method: as §2

surinam grass = test: Test B pre/postemergence surinam grass; type: in vivo, Brachiaria decumbens
Summary of the method: as §1

wild oat = test: Test B pre/postemergence wild oat; type: in vivo, Avena fatua; conditions: for Plant response rating, Wild oats: Rate 250 g/ha
Summary of the method: as §1

duck salad = test: Test B flood test duck salad; type: in vivo, Heteranthera limosa
Summary of the method: as §2

rape = test: Test B pre/postemergence rape; type: in vivo, Brassica napus
Summary of the method: as §1

purple nutsedge = test: Test B pre/postemergence purple nutsedge; type: in vivo, Cyperus rotundus
Summary of the method: as §1

sugar beet = test: Test B pre/postemergence sugar beet; type: in vivo, Beta vulgaris; conditions: for Plant response rating, Sugarbeets: Rate 250 g/ha
Summary of the method: as §1

[1] = Postemergence, Rate 125 g/ha, scale of 0 to 10 where 0 is no effect and 10 is complete control
[2] = Preemergence, Rate 62 g/ha, scale 0 to 10 (0 no effect, 10 complete control)
[3] = Preemergence, Rate 125 g/ha, 0 is no effect, 10 is complete control
[4] = Preemergence, scale of 0 to 10 where 0 is no effect and 10 is complete control
[5] = Preemergence, Rate 500 g/ha, scale 0 to 10 (0 no effect, 10 complete control)
[6] = Rate 62 g/ha, Postemergence, scale of 0 to 10 where 0 is no effect and 10 is complete control
[7] = Postemergence, scale 0 to 10, 0 is no effect, 10 is complete control
[8] = Rate 500 g/ha, Postemergence, scale 0 to 10, 0 no effect, 10 complete control
[9] = Postemergence, Rate 250 g/ha, scale 0 to 10, 0 no effect, 10 complete control
[10] = Preemergence, Rate 125 g/ha, scale 0 to 10 (0 no effect, 10 complete control)
[11] = Preemergence, Rate 250 g/ha, scale of 0 to 10 where 0 is no effect and 10 is complete control
[12] = Rate 250 g/ha, Postemergence, scale 0 to 10, 0 is no effect, 10 is complete control
[13] = Postemergence, Rate 62 g/ha, scale 0 to 10, 0 is no effect, 10 is complete control
[14] = Rate 125 g/ha, Postemergence, scale 0 to 10, 0 no effect, 10 complete control
[15] = Rate 250 g/ha, headed Pre-emergence (flood test species), scale 0 to 10 (0 no effect, 10 complete control)
[16] = Rate 500 g/ha, headed Pre-emergence (flood test species), scale 0 to 10 (0 no effect, 10 complete control)
[17] = Rate 2000 g/ha, Pre-emergence (as headed), scale 0 to 10
[18] = Rate 1000 g/ha, Pre-emergence (as headed), scale 0 to 10

Structure (SMILES): CCCn1c(=O)on(C(=O)N(c2ccc(Cl)cc2)C(C)C)c1=O [Compound 119]
- Velvetleaf plant response rating (velvetleaf; [1]): 2
- Velvetleaf plant response rating (velvetleaf; [2]): 0
- Velvetleaf plant response rating (0 to 10 scale) (velvetleaf; [3]): 4
- Plant response rating, Velvetleaf (velvetleaf; [4]): 5
- Velvetleaf plant response rating (velvetleaf; [5]): 6
- Velvetleaf plant response rating (velvetleaf; [6]): 0
- Plant response rating, Velvetleaf (velvetleaf; [7]): 3
- Velvetleaf plant response rating (velvetleaf; [8]): 3
- Corn plant response rating (corn; [1]): 0
- Corn plant response rating (corn; [9]): 0
- Corn plant response rating (corn; [2]): 0
- Plant response rating, Corn (corn; [10]): 0
- Plant response rating, Corn (corn; [11]): 0
- Corn plant response rating (corn; [5]): 2
- Corn plant response rating (corn; [6]): 0
- Corn plant response rating (corn; [8]): 0
- Soybean plant response rating (soybean; [1]): 2
- Soybean plant response rating (soybean; [2]): 0
- Plant response rating, Soybean (soybean; [10]): 0
- Plant response rating, Soybean (soybean; [11]): 0
- Soybean plant response rating (soybean; [5]): 0
- Soybean plant response rating (soybean; [6]): 1
- Plant response rating, Soybean (soybean; [12]): 4
- Soybean plant response rating (soybean; [8]): 6
- Bedstraw plant response rating (bedstraw; [13]): 0
- Bedstraw plant response rating (bedstraw; [9]): 4
- Plant response rating, Bedstraw (bedstraw; [10]): 0
- Plant response rating, Bedstraw (bedstraw; [11]): 2
- Bedstraw plant response rating (bedstraw; [5]): 8
- Bedstraw plant response rating (bedstraw; [14]): 2
- Bedstraw plant response rating (bedstraw; [8]): 8
- Wheat plant response rating (wheat; [1]): 0
- Wheat plant response rating (wheat; [2]): 0
- Wheat plant response rating (0 to 10 scale) (wheat; [3]): 0
- Plant response rating, Wheat (wheat; [4]): 3
- Wheat plant response rating (wheat; [5]): 5
- Wheat plant response rating (wheat; [6]): 0
- Plant response rating, Wheat (wheat; [7]): 3
- Wheat plant response rating (wheat; [8]): 3
- S. Flatsedge plant response rating (smallflower flatsedge; Pre-emergence, Rate 1000 g/ha, scale 0 to 10 (0 no effect, 10 complete control)): 0
- S. Flatsedge plant response rating (smallflower flatsedge; [15]): 0
- Plant response rating, S. Flatsedge (smallflower flatsedge; [16]): 0
- S. Flatsedge plant response rating (smallflower flatsedge; [17]): 0
- Cocklebur plant response rating (cocklebur; [1]): 0
- Cocklebur plant response rating (cocklebur; [9]): 0
- Cocklebur plant response rating (cocklebur; [2]): 0
- Plant response rating, Cocklebur (cocklebur; [10]): 0
- Plant response rating, Cocklebur (cocklebur; [11]): 0
- Cocklebur plant response rating (cocklebur; [6]): 0
- Cocklebur plant response rating (cocklebur; [8]): 0
- Redroot pigweed plant response rating (pigweed; [1]): 0
- Redroot pigweed plant response rating (pigweed; [2]): 10
- Plant response rating, Redroot pigweed (pigweed; [10]): 10
- Plant response rating, Redroot pigweed (pigweed; [11]): 10
- Redroot pigweed plant response rating (pigweed; [5]): 10
- Redroot pigweed plant response rating (pigweed; [6]): 0
- Plant response rating, Redroot pigweed (pigweed; [12]): 2
- Redroot pigweed plant response rating (pigweed; [8]): 6
- Giant foxtail plant response rating (giant foxtail; [1]): 8
- Giant foxtail plant response rating (giant foxtail; [9]): 8
- Giant foxtail plant response rating (giant foxtail; [2]): 9
- Plant response rating, Giant foxtail (giant foxtail; [10]): 10
- Plant response rating, Giant foxtail (giant foxtail; [11]): 10
- Giant foxtail plant response rating (giant foxtail; [5]): 10
- Giant foxtail plant response rating (giant foxtail; [6]): 8
- Giant foxtail plant response rating (giant foxtail; [8]): 8
- Plant response rating, Rice (rice; Rate 250 g/ha, Postemergence (flood test), scale 0 to 10, 0 is no effect, 10 is complete control): 0
- Rice plant response rating (rice; [15]): 0
- Plant response rating, Rice (rice; [16]): 0
- Rice plant response rating (rice; Rate 500 g/ha, listed under Postemergence (flood test species), scale 0 to 10, 0 no effect, 10 complete control): 0
- Rice plant response rating (rice; [18]): 0
- Rice plant response rating (rice; [17]): 0
- B. signalgrass plant response rating (surinam grass; [13]): 0
- B. signalgrass plant response rating (surinam grass; [9]): 3
- B. signalgrass plant response rating (surinam grass; [2]): 5
- Plant response rating, B. signalgrass (surinam grass; [10]): 7
- Plant response rating, B. signalgrass (surinam grass; [11]): 7
- B. signalgrass plant response rating (surinam grass; [5]): 9
- B. signalgrass plant response rating (surinam grass; [14]): 0
- B. signalgrass plant response rating (surinam grass; Rate 500 g/ha, Postemergence, scale of 0 to 10 where 0 is no effect and 10 is complete control): 5
- Wild oats plant response rating (wild oat; [1]): 0
- Wild oats plant response rating (wild oat; [2]): 5
- Wild oats plant response rating (0 to 10 scale) (wild oat; [3]): 6
- Plant response rating, Wild oats (wild oat; [4]): 6
- Wild oats plant response rating (wild oat; [5]): 9
- Wild oats plant response rating (wild oat; [6]): 0
- Plant response rating, Wild oats (wild oat; [7]): 3
- Wild oats plant response rating (wild oat; [8]): 6
- Ducksalad plant response rating (duck salad; [15]): 0
- Plant response rating, Ducksalad (duck salad; [16]): 0
- Ducksalad plant response rating (duck salad; [18]): 0
- Ducksalad plant response rating (duck salad; [17]): 0
- Rape plant response rating (rape; [1]): 0
- Rape plant response rating (rape; [9]): 2
- Rape plant response rating (rape; [2]): 4
- Plant response rating, Rape (rape; [10]): 6
- Plant response rating, Rape (rape; [11]): 7
- Rape plant response rating (rape; [5]): 9
- Rape plant response rating (rape; [6]): 0
- Rape plant response rating (rape; [8]): 4
- Nutsedge plant response rating (purple nutsedge; [1]): 0
- Nutsedge plant response rating (purple nutsedge; [9]): 0
- Nutsedge plant response rating (purple nutsedge; [2]): 0
- Plant response rating, Nutsedge (purple nutsedge; [10]): 0
- Plant response rating, Nutsedge (purple nutsedge; [11]): 0
- Nutsedge plant response rating (purple nutsedge; [5]): 6
- Nutsedge plant response rating (purple nutsedge; [6]): 0
- Nutsedge plant response rating (purple nutsedge; [8]): 0
- Sugarbeets plant response rating (sugar beet; [1]): 0
- Sugarbeets plant response rating (sugar beet; [2]): 3
- Sugarbeets plant response rating (0 to 10 scale) (sugar beet; [3]): 4
- Plant response rating, Sugarbeets (sugar beet; [4]): 8
- Sugarbeets plant response rating (sugar beet; [5]): 8
- Sugarbeets plant response rating (sugar beet; [6]): 0
- Plant response rating, Sugarbeets (sugar beet; [7]): 0
- Sugarbeets plant response rating (sugar beet; [8]): 4
